In patent US12552790B2, “Positive modulators of the muscarinic acetylcholine receptor M4” (Vanderbilt University, priority 2023, dated 2026):

Columns and labels:
Human M4 = target: T1, Human M4 (Homo sapiens, UniProt P08173); test: M4 cell-based functional assay, calcium mobilization, potentiation of ACh EC20; settings: for Emax at 30 µM: % ACh maximum at 30 μM; for EC50: CHO-K1 hM4-Gqi5 cells, calcium flux, ACh EC20
T1 construct: expressed in transfected cells
T1 sequence (P08173 1-479): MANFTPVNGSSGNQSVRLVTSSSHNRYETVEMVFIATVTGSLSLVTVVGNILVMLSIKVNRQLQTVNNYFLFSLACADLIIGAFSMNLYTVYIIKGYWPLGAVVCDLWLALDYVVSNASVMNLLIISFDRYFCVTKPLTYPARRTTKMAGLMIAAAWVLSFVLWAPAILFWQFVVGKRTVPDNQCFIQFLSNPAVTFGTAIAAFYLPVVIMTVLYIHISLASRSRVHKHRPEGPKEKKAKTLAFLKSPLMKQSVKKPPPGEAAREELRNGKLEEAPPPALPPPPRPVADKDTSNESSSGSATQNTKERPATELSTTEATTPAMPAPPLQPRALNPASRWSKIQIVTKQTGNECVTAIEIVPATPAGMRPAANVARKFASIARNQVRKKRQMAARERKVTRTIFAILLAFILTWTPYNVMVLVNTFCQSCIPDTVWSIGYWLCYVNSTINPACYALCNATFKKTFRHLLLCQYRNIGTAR
Summary of the method: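 CHO-K1 cells stably co-expressing human M4 and chimeric Gqi5, loaded with Fluo-4-AM, read by calcium fluorescence (ex 480/em 530 nm). Compound (10-point 1:3 series) added ~140 s before an EC20 ACh challenge, then EC80 ACh. Response expressed as fold over basal, normalized to maximal ACh response.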

[1] = system: 68 primary molecular targets; test: Eurofins LeadProfilingScreen (binding); settings: 10 μM (binding), 68 targets
Excerpt: The screen includes 68 primary molecular targets, including several CNS targets recommended by the EMEA to evaluate drug dependence potential.

[2] = Dog fraction unbound in plasma; type: in vitro ADME; settings: read-out: Dog Fu (plasma)
Excerpt: (§1) Compounds may be tested in in vitro assays to investigate both metabolism and pharmacokinetics. These assays may be performed according to known methods as generally described in the following references: Conde-Ceide et al. ACS Med. Chem. Lett. 2015, 6, 716-720; Morris et al. J. Med. Chem. 2014, 57, 10192-10197; and Bubser et al. ACS Chem. Neurosci. 2014, 5, 920-942.

[3] = Human intrinsic clearance; type: in vitro ADME
Excerpt: as §1

P450 3A4 = P450 3A4 (Homo sapiens, UniProt P08684); test: P450 3A4 inhibition; type: in vitro ADME
P450 3A4, sequence (P08684 whole entry): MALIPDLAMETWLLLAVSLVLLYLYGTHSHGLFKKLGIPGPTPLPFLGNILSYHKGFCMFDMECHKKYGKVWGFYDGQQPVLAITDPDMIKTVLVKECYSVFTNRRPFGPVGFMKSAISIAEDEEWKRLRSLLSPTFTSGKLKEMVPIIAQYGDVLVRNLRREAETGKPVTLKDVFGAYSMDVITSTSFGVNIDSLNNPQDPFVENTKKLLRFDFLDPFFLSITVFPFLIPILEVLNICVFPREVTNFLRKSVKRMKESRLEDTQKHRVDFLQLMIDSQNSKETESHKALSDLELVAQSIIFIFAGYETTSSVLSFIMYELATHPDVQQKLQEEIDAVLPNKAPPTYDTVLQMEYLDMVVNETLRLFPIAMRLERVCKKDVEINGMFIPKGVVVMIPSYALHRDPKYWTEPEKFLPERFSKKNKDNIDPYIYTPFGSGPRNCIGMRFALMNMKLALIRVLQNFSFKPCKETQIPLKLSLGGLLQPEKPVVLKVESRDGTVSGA
Excerpt: as §1

Emax at 30 µM (Human M4) [%]	EC50 (Human M4) [nM]	inhibition of each target in the LeadProfilingScreen [1] [%]	fraction unbound [2]	CLint scaled [3] [mL/min/kg]	IC50 (P450 3A4) [nM]	SMILES
96	2	–	–	–	–	[2H]C1([2H])Oc2ccc(OC3CCN(c4nc5nn(C)c(=O)n5c(C)c4C)CC3)cc2OC1([2H])[2H] [Compound A10, 7-(4-((2,3-dihydrobenzo[b][1,4]dioxin-6-yl-2,2,3,3-d4)oxy)piperidin-1-yl)-2,5,6-trimethyl-[1,2,4]triazolo[4,3-a]pyrimidin-3(2H)-one]
90	7	–	–	–	–	[2H]C1([2H])Oc2ccc(OC3CCN(c4nc5nn(C)c(=O)n5cc4C)CC3)cc2OC1([2H])[2H] [Compound A6, 7-(4-((2,3-dihydrobenzo[b][1,4]dioxin-6-yl-2,2,3,3-d4)oxy)piperidin-1-yl)-2,6-dimethyl-[1,2,4]triazolo[4,3-a]pyrimidin-3(2H)-one]
96	2	< 50	0.042	15	> 100000	[2H]C1([2H])Oc2ccc(OC3CCN(c4nc5c(cc4C)C(=O)NC5)CC3)cc2OC1([2H])[2H] [Compound 3, 2-(4-((2,3-dihydrobenzo[b][1,4]dioxin-6-yl-2,2,3,3-d4)oxy)piperidin-1-yl)-3-methyl-6,7-dihydro-5H-pyrrolo[3,4-b]pyridin-5-one]
